Source: article PMC4753678 (Journal of medicinal chemistry, 2016)

Columns and labels:
[1] = molecular target: T1, full-length human dCTPase protein (Homo sapiens, UniProt Q9H773); assay: HTS-adapted Malachite Green assay of dCTPase inhibition; assay type: biochemical; settings: for decrease in potency: compared with compound 6
T1 sequence (Q9H773 1-170): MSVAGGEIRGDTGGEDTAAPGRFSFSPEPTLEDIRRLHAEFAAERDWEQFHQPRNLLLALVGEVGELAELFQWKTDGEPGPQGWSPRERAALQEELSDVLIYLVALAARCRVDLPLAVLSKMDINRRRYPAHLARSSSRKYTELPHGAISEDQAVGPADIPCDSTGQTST

[2] = human liver microsome stability; settings: human liver microsomes
kinases = assay: selectivity against kinases; assay type: biochemical
DNA = DNA intercalation
NTPases/NUDIX hydrolases = assay: selectivity panel of related NTPases/NUDIX hydrolases; assay type: biochemical
[3] = tested on: base excision repair enzymes; assay: selectivity against base excision repair enzymes; assay type: biochemical
purified dCTPase enzyme = molecular target: T2, purified dCTPase enzyme (Homo sapiens, UniProt Q9H773); assay: differential scanning fluorimetry assay; assay type: binding
T2 sequence (Q9H773 1-170): T1 sequence (Q9H773 1-170)

intracellular dCTPase = molecular target: T3, intracellular dCTPase (Homo sapiens, UniProt Q9H773); assay: cellular thermal shift assay in HL60 cells; assay type: cell-based; settings: 2 h incubation, heated at 67 °C
T3 sequence (Q9H773 1-170): T1 sequence (Q9H773 1-170)

[4] = mouse liver microsome stability; settings: mouse liver microsomes
[5] = stability of a solution at room temperature under normal light; assay type: physicochemical; settings: normal light conditions, five months
[6] = glutathione conjugation with metabolic activation in HLM; assay type: in vitro ADME, human; settings: in the presence of metabolic activation system (in HLM)
dCTPase = molecular target: T4, dCTPase (Homo sapiens, UniProt Q9H773); assay: jump dilution assay; assay type: biochemical; settings: 10% of the IC50 concentration
T4 sequence (Q9H773 1-170): T1 sequence (Q9H773 1-170)

HL60 cells = assay: combination with cytidine analogues, cell death by flow cytometry; assay type: cell-based; settings: 72 h, compound 18 2.5 μM, increasing concentrations of cytidine analogues
[7] = tested on: p-Chk1, γ-H2AX, 53BP1, cleaved caspase 3; assay: DNA replication stress and apoptosis markers; assay type: cell-based; settings: at the concentrations and time points tested
plasma protein binding = assay type: in vitro ADME

## COc1ccc(Cn2cnc3ccccc32)cc1 [Compound 7, 1-(4-Methoxybenzyl)-1H-benzo[d]imidazole]
[1]
  inhibition of dCTPase (in words): no inhibiton of dCTPase

## COc1ccc(Cn2cnc3cc(C)c(C)cc32)cc1 [Compound 8, 1-(4-Methoxybenzyl)-5,6-dimethyl-1H-benzo[d]imidazole]
[1]
  inhibition of dCTPase (in words): no inhibiton of dCTPase

## COc1ccc(Cn2c(C)nc3ccccc32)cc1 [Compound 9, 1-(4-Methoxybenzyl)-2-methyl-1H-benzo[d]imidazole]
[1]
  inhibition of dCTPase (in words): no inhibition of dCTPase

## COc1ccc(Cn2c(C)nc3cc(C)c(C)cc32)cc1 [Compound 10, 1-(4-Methoxybenzyl)-2,5,6-trimethyl-1H-benzo[d]imidazole]
[1]
  decrease in potency: 400 fold

## COc1ccc(Cn2c(C)nc3c([N+](=O)[O-])cccc32)cc1 [Compound 12, 1-(4-Methoxybenzyl)-2-methyl-4-nitro-1H-benzo[d]imidazole]
[1]
  decrease in potency: approximately 25 fold

## COc1ccc(Cn2c(C)nc3c([N+](=O)[O-])c(Cl)c(Cl)cc32)cc1 [Compound 14, 5,6-Dichloro-1-(4-methoxybenzyl)-2-methyl-4-nitro-1H-benzo-[d]imidazole]
[2]
  E HLM (extraction ratio): 0.59
kinases
  selectivity over kinases: excellent selectivity
DNA
  DNA intercalation: did not intercalate DNA
NTPases/NUDIX hydrolases
  selectivity across related NTPases/NUDIX hydrolases: excellent selectivity
[3]
  selectivity over base excision repair enzymes: excellent selectivity
Purified dCTPase enzyme
  stabilization of the purified dCTPase enzyme: concentration-dependent stabilization
Intracellular dCTPase
  intracellular dCTPase stabilization / target engagement: did not stabilize dCTPase
[4]
  E MLM (extraction ratio): 0.88

## Cc1nc2c([N+](=O)[O-])c(Cl)c(Cl)cc2n1Cc1ccc(B(O)O)cc1 [Compound 18, (4-((5,6-Dichloro-2-methyl-4-nitro-1H-benzo[d]imidazol-1-yl)-methyl)phenyl)boronic Acid]
[2]
  E HLM (extraction ratio): 0.38
[5]
  degradation of a solution: no signs of degradation
kinases
  selectivity over kinases: excellent selectivity
[6]
  conjugation with glutathione (GSH): did not conjugate
DNA
  DNA intercalation: did not intercalate DNA
NTPases/NUDIX hydrolases
  selectivity across related NTPases/NUDIX hydrolases: excellent selectivity
[3]
  selectivity over base excision repair enzymes: excellent selectivity
Purified dCTPase enzyme
  stabilization of the purified dCTPase enzyme: concentration-dependent stabilization
dCTPase
  reversibility of dCTPase inhibition: reversible off-rate
HL60 cells
  cell death in combination with cytidine analogues: concentration-dependent increase in cell death
Intracellular dCTPase
  intracellular dCTPase stabilization / target engagement: strong intracellular target engagement
[7]
  DNA replication stress (p-Chk1, γ-H2AX, 53BP1) and cleaved caspase 3: did not increase DNA replication stress
[4]
  E MLM (extraction ratio): 0.24

## Cc1n[nH]c(C)c1CCn1c(C)nc2c([N+](=O)[O-])c(Cl)c(Cl)cc21 [Compound 25, 5,6-Dichloro-1-(2-(3,5-dimethyl-1H-pyrazol-4-yl)ethyl)-2-methyl-4-nitro-1H-benzo[d]imidazole]
[2]
  E HLM (extraction ratio): 0.83
[4]
  E MLM (extraction ratio): 0.89

## Cc1nc2c([N+](=O)[O-])c(Cl)c(Cl)cc2n1Cc1ccc(-n2cccn2)cc1 [Compound 27, 1-(4-(1H-Pyrazol-1-yl)benzyl)-5,6-dichloro-2-methyl-4-nitro-1H-benzo[d]imidazole]
[2]
  E HLM (extraction ratio): 0.61
[4]
  E MLM (extraction ratio): 0.73

## Cc1nc2c([N+](=O)[O-])c(Cl)c(Cl)cc2n1Cc1ccc(B2OC(=O)CN(C)CC(=O)O2)cc1 [Compound 30, 2-(4-((5,6-Dichloro-2-methyl-4-nitro-1H-benzo[d]-imidazol-1-yl)methyl)phenyl)-6-methyl-1,3,6,2-dioxazaborocane-4,8-dione]
[6]
  conjugation with glutathione (GSH): did not conjugate
Plasma protein binding
  fraction unbound: 0.008
[4]
  E MLM (extraction ratio): 0.36

## O=[N+]([O-])c1c(Cl)c(Cl)cc2c1nc(C1CC1)n2Cc1ccc(B(O)O)cc1 [Compound 36, (4-((5,6-Dichloro-2-cyclopropyl-4-nitro-1H-benzo[d]imidazol-1-yl)methyl)phenyl)boronic Acid]
[2]
  E HLM (extraction ratio): 0.14
dCTPase
  reversibility of dCTPase inhibition: reversible off-rate
[4]
  E MLM (extraction ratio): 0.83

## Cc1nc2cc(Cl)c(Cl)cc2n1Cc1ccc(B(O)O)cc1 [Compound 38, (4-((5,6-Dichloro-2-methyl-1H-benzo[d]imidazol-1-yl)methyl)-phenyl)boronic Acid]
[1]
  inhibition of dCTPase (in words): submicromolar activity

## Cc1nc2c([N+](=O)[O-])c(F)c(F)cc2n1Cc1ccc(B(O)O)cc1 [Compound 39, (4-((5,6-Difluoro-2-methyl-4-nitro-1H-benzo[d]imidazol-1-yl)-methyl)phenyl)boronic Acid]
[1]
  inhibition of dCTPase (in words): submicromolar activity
